Data: patent US11647751B2, “Use of phosphorus containing herbicides as desiccant for plants of the genus Saccharum” (BASF SE, priority 2013, dated 2023)

Tested on: Saccharum officinarum plants
Assay: Field trial: desiccation of sugarcane leaves after application of diluted glufosinate-ammonium compositions
Format: in vivo
Conditions: growth stage BBCH 49 (approx. 300 cm), evaluation 2 weeks after application
Experimental: The compositions described in the table above were diluted with water and applied to a field of Saccharum officinarum plants at growth stage BBCH 49 (approximately 300 cm growth height; corresponding to about 2 weeks before harvest), such that the amount of glufosinate ammonium was 800 g/ha or 1000 g/ha, respectively.

With `CP(=O)(O)CCC(N)C(=O)O` (centres unmarked) [glufosinate ammonium, 2-amino-4-[hydroxy(methyl)phosphinoyl]butanoic acid] the “desiccation of sugarcane leaves” value (800 g/ha glufosinate ammonium) was 54% and the “desiccation of sugarcane leaves” value (1000 g/ha glufosinate ammonium) was 60%.
